Results as given in patent US11969402B2, “Compositions and methods for skin rejuvenation” (THE JOHNS HOPKINS UNIVERSITY, priority 2019, dated 2024).

Columns and labels:
[1] = system: human scalp keratinocytes; assay: Retinoid levels (RA by LC-MS/MS, ROL and RE by HPLC-UV) in keratinocytes; type: cell-based
Source text: Small interference RNA (siRNA) transfection. Human ALDH1A2 (Santa Cruz Biotechnology, sc41443), ALDH1A3 (Santa Cruz Biotechnology, sc43611), TLR3 (Dharmacon, M-007745-00), TRIF (Santa Cruz Biotechnology, sc106845), IRF3 (Santa Cruz Biotechnology, sc35710), NF-κB (Santa Cruz Biotechnology, sc29410) and non-targeting control (scramble) siRNAs (Santa Cruz Biotechnology, sc37007 & Dharmacon, D-001210) were commercially provided. Human scalp keratinocytes (3×10^5 cells per well) in 12-well plates were transfected with 20 nM of siRNAs using Lipofectamine® RNAiMAX (Thermo Fisher Scientific, #13778150) following the manufacturer's directions. Poly (I:C) (0.1 μg per ml) was applied to transfected cells and incubated for 48 hrs. At the end of transfection period, cells were harvested to isolate protein to perform qRT-PCR, western blot, and RA mass spectrometry.
IL6 treatment. Recombinant human interleukin 6 (rhIL6) (R&D system; 206-IL-010) was treated into human scalp keratinocytes with dose-dependent manners (0, 10, 50, and 100 ng per ml) for 2 days. Cells were harvested and lysates were used for RA measurement.
Determination of Retinoid Levels. For in vitro samples, human scalp keratinocytes were incubated with 0.5 μg per ml of Poly (I:C) for 48 hrs or siRNAs-transfected cells were incubated with 0.1 μg per ml of Poly (I:C) for 48 hrs. For in vivo samples, skin was analyzed from wild-type and Tlr3^−/− unwounded and wounded skin where wound regions (center and edge area) were cut by scalpel. Human skin was analyzed for retinoids with and without CO2 laser treatment as described. All samples were frozen at collection and stored at −80° C. until extraction. For in vitro experiments, media and cell pellets were analyzed separately. For in vivo experiments, tissues were homogenized in saline. Extraction of retinoids was performed under yellow lights using a two-step liquid-liquid extraction that has been described in detail previously using 4,4-dimethyl-RA as an internal standard for RA and retinyl acetate as an internal standard for retinol and total retinyl ester^43-46. For the extraction of retinoids, 1 to 3 ml of 0.025 M KOH in ethanol was added to tissue homogenates (in vivo) or cell culture (in vitro) samples. Then 10 ml hexane (for in vivo tissue sample) or 5 ml hexane (for in vitro cell culture sample) was added to the aqueous ethanol phase. The samples were vortexed and centrifuged for 1 to 3 min at 1000 rpm in a Dynac centrifuge (Becton Dickinson) to facilitate phase separation and pellet precipitated protein. The hexane (top) phase containing nonpolar retinoids (ROL and RE) was removed. 4 M HCl (60-180 μl) was added to the remaining aqueous ethanol phase, samples were vortexed, and then polar retinoids (RA) were removed by extraction with a second 5-10 ml aliquot of hexane as described above. […]
Levels of RA were determined by liquid chromatography-multistage tandem mass spectrometry (LC-MRM^3) which is an LC-MS/MS method utilizing two distinct fragmentation events for enhanced selectivity^43. RA was measured using a Shimadzu Prominence UFLC XR liquid chromatography system (Shimadzu, Columbia, MD) coupled to an AB Sciex 5500 or 6500+ QTRAP hybrid triple quadrupole mass spectrometer (AB Sciex, Framingham, MA) using atmospheric pressure chemical ionization (APCI) operated in positive ion mode as previously described^43. […]

cells = assay: Entry of dsRNA (PIC) into cells, stain (Example 2); type: cell-based; conditions: after pre-treatment with RA
wound beds = assay: Immunostaining of healing wounds; type: in vivo, mouse; conditions: Tlr3−/− mice
Method: Wound Induced Hair Neogenesis (WIHN). All experiments were followed with the present inventors' WIHN protocol^1,9. Briefly, hair was shaved and a 1.2 cm^2 full-thickness skin on the backs of 21-day old (telogen) male and female mice was removed by sterile scissors. A single treatment of RA (30 μl) (0.1 μg per mouse) (Millipore Sigma, R2625) and BMS493 (30 μl) (0.1 μg per mouse) (Cayman Chemical, #17418) was applied topically onto open wound on WD1 of Tlr3^−/− and WT mice, respectively. Poly (I:C) (50 μl) (5 μg per mouse) (Invivogen, tlrl-pic) was injected under the healed scab on WD3 of WT mice as described before^9,34. On WD20-24, numbers of regenerated hair follicles were visualized and quantified in the re-epithelialized skin by non-invasive confocal scanning laser microscopy (CSLM) (Caliber I.D., VIVASCOPE 1500) as published^1,9. As a vehicle (Control), ethanol (EtOH), dimethylsulfoxide (DMSO), or PBS was treated for RA, BMS493, and Poly (I:C), respectively.
Immunofluorescence. […] Fluorescence images were observed by fluorescence microscopy (Leica microsystems), taken pictures with ×100 (low magnification) and ×200 (high magnification), and saved as image files.

Which “Poly (I:C)-induced RA accumulation” value ([1]; TLR3 siRNA-transfected human keratinocytes, 0.1 μg per ml, 48 hrs) does the source give for “Polyinosinic-polycytidylic acid [Poly (I:C)]” here?
The value was “dependent on TLR3”.

What about the RA synthesis ([1]; human keratinocytes transfected with MDA5- or RIG-I-siRNA) of the same compound?
Its RA synthesis is “still induce RA synthesis”.

And the “retinol (ROL) and retinyl ester (RE) quantities” value ([1]; human keratinocytes treated with Poly (I:C))?
Its value is “not modified”.

What about the RA abundance ([1]; human keratinocytes, cell lysates and culture media, 0.5 μg per ml, 48 hrs) of the same compound?
The RA abundance was “markedly increased”.

What about the “accumulation of PIC in cells” value (cells) of the same compound?
Its value is “much more effectively”.

CC1=C(/C=C/C(C)=C/C=C/C(C)=C/C(=O)O)C(C)(C)CCC1 [RA, all-trans-retinoic acid] was tested. Which “Krt15 immunostaining in wounds” value (wound beds) did it give?
Its value is “induces prominent Krt15”.
